ChEMBL document CHEMBL1154198, “Chemical genetics of Plasmodium falciparum” (Nature, 2010)

Key:
Plasmodium falciparum [1] = experiment: ST_JUDE: Plasmodium falciparum 3D7 EC50 (uM) as measured by SYBR green dye; assay type: functional, organism-based
Plasmodium falciparum [2] = experiment: ST_JUDE: Plasmodium falciparum K1 EC50 (uM) as measured by SYBR green dye; assay type: functional, organism-based

Row | Structure (SMILES) | EC50 (Plasmodium falciparum [1]) [µM] | EC50 (Plasmodium falciparum [2]) [µM]
1 | COc1cc(CN(Cc2cccnc2)C(=O)c2[nH]c3ccc(Cl)cc3c2C)ccc1OC1CCOC1 (stereo not drawn) | > 15 | > 15
2 | C[n+]1ccccc1/C=C1\Sc2ccccc2N1CCC(=O)O | 7.63 | 3.01
3 | CCc1ccc(OC(C)C(=O)Nc2nccs2)cc1 (stereo not drawn) | > 15 | > 15
4 | Cc1ccc(Nc2cc(C)nc(Nc3ccc(NS(=O)(=O)c4cccc(Cl)c4)cc3)n2)cc1 | 1.46 | > 15
5 | CC1=C/C(=N\OC(=O)c2ccc(Br)cc2)C=CC1=O | > 15 | > 15
6 | CCOC(=O)c1ccc(Nc2nc3nonc3nc2NCc2ccco2)cc1 | > 15 | > 15
7 | CCOC(=O)C1=C(C)N=c2s/c(=C\c3cc(Cl)ccc3O)c(=O)n2C1c1ccc(Cl)cc1 (stereo not drawn) | > 15 | > 15
8 | CCN(CCN(C)C)C(=O)c1csc(-c2ccc(OC(F)(F)F)cc2)n1 | 4.51 | > 15
9 | CCOC(=O)C1=C(C)N=c2s/c(=C\c3cc(Cl)ccc3O)c(=O)n2C1c1ccccc1 (stereo not drawn) | > 15 | > 15
10 | COc1ccc(-c2cnnc(N/N=C/c3ccc(O)cc3)n2)cc1 | > 15 | > 15
11 | Cc1cccc(CN2C(=O)/C(=C\c3ccccc3)Sc3ccc(C(=O)NCCN(C)C4CCCCC4)cc32)c1 | 1.78 | 3.75
12 | CCO/C(O)=C1\C(C)=NC2=C(C(=O)CC(c3ccc(Cl)cc3)C2)C1c1ccc(O)c(OCC)c1 (stereo not drawn) | 0.881 | 1.47
13 | CC(Cc1ccccc1)NCCCCCCCCCNC(C)Cc1ccccc1 (stereo not drawn) | 3.76 | 1.17
14 | COc1ccc(Nc2cc(C)nc(Nc3ccc(NS(=O)(=O)c4cccc(F)c4)cc3)n2)cc1 | 2.05 | 7.31
15 | O=C1C(Nc2ccc(Br)cc2)=C(N2CCOCC2)C(=O)c2ccccc21 | 1.79 | 0.377
16 | COc1ccc(CCNC(=S)Nc2cc(Cl)ccc2Cl)cc1OC | 3.43 | 2.94
17 | CCOc1ccc(-c2nonc2NC(=O)C(C)C)cc1OCC | 1.39 | 1.8
18 | COC(=O)C1=C(C)N=c2s/c(=C\c3ccccc3OC(C)=O)c(=O)n2C1c1ccccc1Cl (stereo not drawn) | > 15 | > 15
19 | CSc1nnc(-c2cccc([N+](=O)[O-])c2)n1Cc1ccccc1 | 1.39 | 1.3
20 | CCc1cc2c(=O)c(Oc3ccccc3)c(C(F)(F)F)oc2cc1O | > 15 | > 15
21 | O=C(N/N=C/c1cc(Cl)cc(Cl)c1O)NC12CC3CC(CC(C3)C1)C2 | > 15 | > 15
22 | COc1cccc2c(C)nc(N=C(N)N)nc12 | > 15 | > 15
23 | COc1ccc(C(C)(C)C)cc1S(=O)(=O)Nc1ccc(Nc2nc(C)cc(N(C)C)n2)cc1 | 0.741 | 1.32
24 | Cc1ccc(O)c(-n2cc3c(c2-c2cccc([N+](=O)[O-])c2)c(=O)n(C)c(=O)n3C)c1 | 4.89 | 4.79
25 | CCCN1CCC(N2CCCC(C(=O)c3ccc4cc(OC)ccc4c3)C2)CC1 (stereo not drawn) | 5 | > 15
26 | CCCC(=O)NC(c1ccc(Cl)cc1)c1ccc2cccnc2c1O (stereo not drawn) | 1.88 | 2.3
27 | COc1ccc2c(c1)C=C/C(=C\c1sc3ccccc3[n+]1C)N2C | 0.163 | 0.145
28 | O=C(NCC1Cc2cccc(-c3ccncc3)c2O1)c1csc2c1CCCC2 (stereo not drawn) | 8.74 | > 15

Continued, values first:

Row | EC50 (Plasmodium falciparum [1]) [µM] | EC50 (Plasmodium falciparum [2]) [µM] | Structure (SMILES)
29 | > 15 | > 15 | COc1ccc(-c2cc(=O)n(-c3ccc([N+](=O)[O-])cc3)[nH]2)cc1
30 | > 15 | > 15 | CCN(CC)CCCNc1nc2cc(OC)c(OC)cc2c2nc(-c3ccccc3)nn12
31 | 8.11 | 2.99 | Oc1ccc(-c2nc(-c3ccc4oc5ccc(-c6[nH]c(-c7ccc(O)cc7)nc6-c6ccccc6)cc5c4c3)c(-c3ccccc3)[nH]2)cc1
32 | 3.46 | 3.77 | COc1ccc(C2C(C(=O)Nc3ccc(C)cc3Br)c3ccccc3C(=O)N2C)cc1 (stereo not drawn)
33 | 0.62 | 0.744 | COC(=O)C1=CNC=C(C(=O)OC)C1c1ccc(Cl)c([N+](=O)[O-])c1
34 | > 15 | > 15 | CC(C)(C)C(=O)Cn1ccc(=N)c2ccccc21
35 | 0.798 | 1.04 | Cc1ccc(-n2nc(C)c3c(C)c(CCC(=O)Nc4ccc5[nH]c(-c6cccnc6)nc5c4)c(C)nc32)cc1C
36 | > 15 | > 15 | CCCCCOCC1CC2(CC(C)(c3csc(Nc4ccccc4Cl)n3)OC2=O)C(=O)O1 (stereo not drawn)
37 | 3.34 | 2.36 | COc1ccccc1N1CCN(Cc2cc(Cl)c3cccnc3c2O)CC1
38 | 0.829 | 1.7 | OCCNc1nc(Nc2ccc(Br)cc2)nc2ccccc12
39 | > 15 | 1.59 | Cc1ccc2oc(-c3cccc(NC(=O)C(Cl)(Cl)Cl)c3C)nc2c1
40 | > 15 | > 15 | CCCCN(CC)CCCNC(=O)Cn1ncc2c3ccccc3n(Cc3ccccc3)c2c1=O
41 | 4.17 | 4.78 | CC(C)CC(=O)NC(c1ccc(Cl)cc1)c1c(O)ccc2ccccc12 (stereo not drawn)
42 | 7.12 | 5.83 | Cc1cccc2sc(NNC(=O)c3ccc(S(=O)(=O)N(C)C)cc3)nc12
43 | > 15 | > 15 | Cc1cccc(OCC(=O)Nc2cccc(-c3nnc(-c4ccccc4)o3)c2)c1
44 | > 15 | > 15 | Cc1onc(-c2ccccc2)c1C(=O)Nc1cccc(Br)c1
45 | 2.45 | 1.99 | CCc1ccc(C(O)(CCC(C)C)C(CN2CCOCC2)c2ccccc2)cc1 (stereo not drawn)
46 | 10.3 | 6.67 | O=C(Nc1cccc(Cl)c1)N1CCn2cccc2C1c1ccc(F)c(F)c1 (stereo not drawn)
47 | > 15 | > 15 | CC(C)OCCNC(=O)CC1C(=O)NCCN1Cc1cccc(C(F)(F)F)c1 (stereo not drawn)
48 | > 15 | > 15 | COc1ccc(N/C=C2/C(=O)N(c3ccc(OC)cc3)C(=O)c3ccccc32)cc1
49 | > 15 | > 15 | CCCC(=O)n1nc(-c2ccc(Cl)cc2)nc1NCc1ccc(OC)cc1

Row | EC50 (Plasmodium falciparum [1]) [µM] | EC50 (Plasmodium falciparum [2]) [µM] | Structure (SMILES)
50 | 0.564 | > 15 | COc1ccc(Nc2cc(C)nc(Nc3ccc(NS(=O)(=O)c4ccc(Cl)cc4)cc3)n2)cc1
51 | 1.34 | 3.02 | CCN(CC)CCNc1nc(Nc2ccc(F)cc2)c2cnn(-c3ccccc3)c2n1
52 | > 15 | > 15 | Cc1cc(C)c(S(=O)(=O)N(C)CC(=O)Nc2cccc(C(F)(F)F)c2)c(C)c1
53 | > 15 | > 15 | O=C(Nc1cccc(OC(F)(F)F)c1)c1ccc(Br)o1
54 | 0.618 | 7.51 | COc1ccc(S(=O)(=O)Nc2ccc(Nc3nc(C)cc(Nc4ccc(C)cc4)n3)cc2)cc1
55 | > 15 | > 15 | O=C(COc1cccc(Br)c1)N/N=C/c1ccc(Br)cc1
56 | 1.42 | > 15 | CCc1ccc(S(=O)(=O)Nc2ccc(Nc3nc(C)cc(N4CCCC4)n3)cc2)cc1
57 | > 15 | 11.9 | O=C1C(Sc2nc[nH]n2)=C/C(=N/S(=O)(=O)c2ccc(F)cc2)c2ccccc21
58 | > 15 | > 15 | CCOCc1cc(CN2CCN(CCC(C)C)C(CCO)C2)ccc1OC (stereo not drawn)
59 | > 15 | > 15 | N#C/C(=C/c1ccc(O)c([N+](=O)[O-])c1)c1nc(-c2ccc(Cl)cc2)cs1
60 | 2.32 | 2.73 | CCOc1c(Br)cc(C2C(C#N)=C(N)Oc3cc4c(cc32)OCO4)cc1OC (stereo not drawn)
61 | 4.14 | > 15 | CCOC(=O)c1c(CN(C)C)n(-c2ccccc2)c2cc(Br)c(O)cc12
62 | 0.499 | 0.458 | COc1ccc(NC2=C/C(=N/S(=O)(=O)c3ccc(C(C)C)cc3)c3ccccc3C2=O)cc1
63 | > 15 | > 15 | CCOC(=O)c1ccc(NC(=O)N2CCN(Cc3ccccc3)CC2)cc1
64 | 0.487 | 1.61 | COc1ccc(-n2c(N)c(C#N)c3nc4ccccc4nc32)cc1
65 | > 15 | > 15 | COc1cc2nnc(/C=C/C(C)=O)c(-c3ccc(C)o3)c2cc1OC
66 | 2.05 | > 15 | CCOC(=O)N1CCN(C(=O)Nc2cc(C(F)(F)F)cc(C(F)(F)F)c2)CC1
67 | 2.59 | 2.6 | COCCN1C(=O)c2ccccc2C(C(=O)Nc2ccc(F)c(Cl)c2)C1c1cccs1 (stereo not drawn)
68 | 0.19 | 0.138 | Cc1ccc2c(c1)C=C/C(=C\c1cccc[n+]1C)N2C
69 | > 15 | 2.66 | COc1ccc(C(NC(=O)c2cccnc2)c2cc(Cl)c3cccnc3c2O)cc1OC (stereo not drawn)
